Data taken from paper PMC10590383, “Repurposing conformational changes in ANL superfamily enzymes to rapidly generate biosensors for organic and amino acids” (Nature Communications, 2023).

Legend:
Experiment in all cases: Fluorescence dose-response of purified cpEGFP sensors (0.75 uM) in 100 mM Tris-HCl pH 7.5, room temperature, 1 mM ATP, 2.5 mM MgCl2; excitation 400, 460 or 480 nm by sensor, emission 510 nm; logistic five-parameter fit.
Type in all cases: biochemical
Settings in all cases: n = 3
GECFINDER-Phe2 = biological target: T1, GECFINDER-Phe2 (Aneurinibacillus migulanus, UniProt P0C061)
T1 construct: gene grsA; GrsA-PheA-PCP; cpEGFP inserted in hinge B, linkers CV-LL
Protocol: (§1) Fig. 3 Dose–response curves and fluorescence spectrums of […]s. a, c, e, g, i, k Dose–response curve of purified […]s with increasing concentrations of ligand in 100 mM Tris-HCl buffer (pH=7.5). The normalized ΔF/F0 value increased after ligand binding. All data shown are mean ± S.D. (n = 3 biologically independent samples). b, d, f, h, j, l The fluorescence spectra of […]s changed as the ligand concentration increased. All data shown are mean ± S.D. (n = 3 biologically independent samples). Source data are provided as a Source data file.
(§2) The study conducted dose–response curve, substrate specificity, and fluorescent spectrum analyses in 100-mM Tris buffer (pH = 7.5), while pH stability experiments were performed in 100-mM Tris buffer at three different pH values (6.5, 7.5, and 8.5) at room temperature. […] protein at a concentration of 0.75 μM, various small molecule concentrations, 1 mM ATP, and 2.5 mM MgCl2 were used in the experiments. Fluorescent signals were detected using a Microplate Reader (Synergy H4, Bio Tek) at an excitation/emission wavelength of 460 nm/510 nm or 480 nm/510 nm. The dose-response curve was determined immediately after the addition of the analyte. The total duration of the measurement was 15 min, with readings taken at one-minute intervals. The dose-response curve was plotted using the fluorescence values obtained after achieving stability in the fluorescence signal. The dose-response curves were fitted using the logistic model LOGISTIC5 available in Origin 2021, which could provide a more adequate fit to asymmetric dose-response data[62],[63]. Excitation spectra were scanned from 300 to 540 nm with a step size of 5 nm, and the emission wavelength was set to 560 nm. Emission spectra were scanned from 470 to 700 nm with a step size of 5 nm, and the excitation wavelength was set to 450 nm. The thermal stability of […] was analyzed using the UNcle multifunctional protein stability analysis system. Measurements were performed in 20 mM MOPS buffer with 2 mM DTT at a sample concentration of 1 mg/mL. Absolute fluorescence quantum yields were measured using an absolute photoluminescence quantum yield spectrometer (FS5, Edinburgh).

GECFINDER-Phe3 = biological target: T2, GECFINDER-Phe3 (Aneurinibacillus migulanus, UniProt P0C061)
T2 construct: gene grsA; GrsA-PheA-PCP; cpEGFP inserted in hinge B, linkers VF-QS
T2 sequence (P0C061 1-617): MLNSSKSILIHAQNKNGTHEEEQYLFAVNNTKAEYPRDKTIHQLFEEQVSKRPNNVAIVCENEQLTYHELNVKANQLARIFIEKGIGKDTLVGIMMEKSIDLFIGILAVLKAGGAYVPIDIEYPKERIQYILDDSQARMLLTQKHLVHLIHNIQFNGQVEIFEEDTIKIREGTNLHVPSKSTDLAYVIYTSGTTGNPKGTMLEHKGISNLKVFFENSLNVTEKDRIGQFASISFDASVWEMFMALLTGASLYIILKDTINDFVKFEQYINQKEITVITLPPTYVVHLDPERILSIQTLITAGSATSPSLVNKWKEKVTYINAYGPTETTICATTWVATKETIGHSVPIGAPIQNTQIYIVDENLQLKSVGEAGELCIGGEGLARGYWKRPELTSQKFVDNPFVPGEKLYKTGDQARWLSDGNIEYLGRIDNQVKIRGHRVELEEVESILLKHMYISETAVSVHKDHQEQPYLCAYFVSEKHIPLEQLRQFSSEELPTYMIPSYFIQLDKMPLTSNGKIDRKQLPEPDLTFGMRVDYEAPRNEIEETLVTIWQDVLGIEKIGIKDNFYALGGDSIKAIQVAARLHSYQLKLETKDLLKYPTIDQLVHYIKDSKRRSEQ
Protocol: as §1, §2

GECFINDER-Phe1 = biological target: T3, GECFINDER-Phe1 (Aneurinibacillus migulanus, UniProt P0C061)
T3 construct: gene grsA; GrsA-PheA-PCP; cpEGFP inserted in hinge B, linkers CC-DR
Protocol: as §1, §2

Compound: N[C@@H](Cc1ccccc1)C(=O)O [Phe, phenylalanine]
- EC50 (GECFINDER-Phe2): 1470 ± 150 nM
- EC50 (GECFINDER-Phe3): 1910 ± 80 nM
- EC50 (GECFINDER-Phe1): 1550 ± 230 nM
